Measurements taken from patent EP2951180B1, “2,6,7,8 SUBSTITUTED PURINES AS HDM2 INHIBITORS” (Merck Sharp & Dohme Corp., priority 2013, dated 2014).

biological target: T1, HDM2 (Homo sapiens, UniProt Q00987); assay: HDM2 FRET assay (inhibition of binding of FITC labeled p53-pocket peptide to HDM2); conditions: 0.5 nM HDM2 (residues 17 to 125), 3nM peptide, two hour incubation at room temperature; read-out: FRET IC50
T1 construct: Thioredoxin (N); made in house; host or cells: E. coli strain BL21(DE3)Rosetta
T1 sequence (Q00987 17-125): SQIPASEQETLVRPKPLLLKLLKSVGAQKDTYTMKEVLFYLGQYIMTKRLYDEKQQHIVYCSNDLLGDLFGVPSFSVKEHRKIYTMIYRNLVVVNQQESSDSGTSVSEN
In short: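 TR-FRET with 0.5 nM His-tagged recombinant HDM2, 3 nM FITC-labelled p53 peptide and 0.25 nM Tb-anti-His antibody in PBS, 0.01% BSA, 0.01% Tween-20, 0.1% DMSO. IC50 from em520/em495 ratio over 10-point dilutions, 4-parameter logistic fit.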

Compound	IC50 [nM]
C[C@@H]1COCCN1c1nc2nc(-c3n[nH]c(=O)o3)nc(-c3cncc(Cl)c3)c2n1C[C@H]1CC[C@H](C)CC1 [Example 16.11, 5-(6-(5-chloropyridin-3-yl)-7-(((trans)-4-methylcyclohexyl)methyl)-8-((R)-3-methylmorpholino)-7H-purin-2-yl)-1,3,4-oxadiazol-2(3H)-one]	27.7
C[C@@H]1COCCN1c1nc2nc(-c3noc(=O)[nH]3)nc(-c3cncc(Cl)c3)c2n1C[C@H]1CC[C@H](C)CC1 [Example 16.10, 3-(6-(5-chloropyridin-3-yl)-7-(((trans)-4-methylcyclohexyl)methyl)-8-((R)-3-methylmorpholino)-7H-purin-2-yl)-1,2,4-oxadiazol-5(4H)-one]	18.1
Cc1cc(Cl)cc(-c2nc(-c3noc(=O)[nH]3)nc3nc(N4CCOC[C@H]4c4ccccc4)n(C[C@H]4CC[C@H](C)CC4)c23)c1 [Example 16.114, 3-{6-(3-chloro-5-methylphenyl)-7-[(trans-4-methylcyclohexyl)methyl]-8-[(3R)-3-phenylmorpholin-4-yl]-7H-purin-2-yl}-1,2,4-oxadiazol-5(4H)-one]	1.56
C[C@H]1CC[C@H](Cn2c(N3CCOC[C@H]3c3ccccn3)nc3nc(-c4n[nH]c(=O)o4)nc(-c4cccc(Cl)c4)c32)CC1 [Example 16.99, 5-{6-(3-chlorophenyl)-7-[(trans-4-methylcyclohexyl)methyl]-8-[(3R)-3-pyridin-2-ylmorpholin-4-yl]-7H-purin-2-yl}-1,3,4-oxadiazol-2(3H)-one]	1.98
Cc1ncc(Cl)cc1-c1nc(-c2noc(=O)[nH]2)nc2nc(N3CCOC[C@H]3c3ccccc3)n(C[C@H]3CC[C@H](C)CC3)c12 [Example 16.158, 3-{6-(5-chloro-2-methylpyridin-3-yl)-7-[(trans-4-methylcyclohexyl)methyl]-8-[(3R)-3-phenylmorpholin-4-yl]-7H-purin-2-yl}-1,2,4-oxadiazol-5(4H)-one]	0.601
C[C@H]1CC[C@H](Cn2c(N3CCO[C@H]4CCC[C@@H]43)nc3nc(-c4n[nH]c(=O)o4)nc(-c4cncc(Cl)c4)c32)CC1 [Example 16.91, 5-{6-(5-chloropyridin-3-yl)-8-[(4aS,7aS)-hexahydrocyclopenta [b][1,4]oxazin-4(4aH)-yl]-7-[(trans-4-methylcyclohexyl)methyl]-7H-purin-2-yl}-1,3,4-oxadiazol-2(3H)-one]	403
CC(C)c1ccnc(-c2nc3nc(-c4nnn[nH]4)nc(N[C@H](C)C4CCC4)c3n2C[C@H]2CC[C@H](C)CC2)c1 [Example 12.8, N-[(1R)-1-cyclobutylethyl]-7-[(trans-4-methylcyclohexyl)methyl]-8-[4-(propan-2-yl)pyridin-2-yl]-2-(1H-tetrazol-5-yl)-7H-purin-6-amine]	1.91

same assay, conditions: Table 9; read-out: FRET IC50

Compound	IC50 [nM]
C[C@@H](Nc1nc(C(=O)O)nc2nc(N3C[C@H]4C[C@@H]3CO4)n(Cc3ccc(C(F)(F)F)cc3)c12)C1CCC1 [Example 9.27, 6-{[(1R)-1-cyclobutylethyl]amino}-8-[(1R,4R)-2-oxa-5-azabicyclo [2.2.1]hept-5-yl]-7-[4-(trifluoromethyl)benzyl]-7H-purine-2-carboxylic acid]	23.7
CC(C)C1CCCN(c2nc3nc(C(=O)O)nc(N[C@H](C)C4CCC4)c3n2Cc2ccc(C(F)(F)F)cc2)C1 (stereo partly drawn) [Example 9.46, 6-{[(1R)-1-cyclobutylethyl]amino}-8-[3-(1-methylethyl)piperidin-1-yl]-7-[4-(trifluoromethyl)benzyl]-7H-purine-2-carboxylic acid]	26.2
CC(C)CC1COCCN1c1nc2nc(-c3noc(=O)[nH]3)nc(N[C@H](C)C3CCC3)c2n1Cc1ccc(C(F)(F)F)cc1 (stereo partly drawn) [Example 9.101, 3-(6-{[(1R)-1-cyclobutylethyl]amino}-8-[3-(2-methylpropyl)morpholin-4-yl]-7-[4-(trifluoromethyl)benzyl]-7H-purin-2-yl)-1,2,4-oxadiazol-5(4H)-one]	9.8

same assay, conditions: Table 10; read-out: FRET IC50

Compound	IC50 [nM]
C=CCN(c1nc(C(=O)O)nc2nc(NC(C)c3ccccn3)n(Cc3ccc(C(F)(F)F)cc3)c12)[C@H](C)C1CCC1 (stereo partly drawn) [Example 10.31, 6-(allyl((R)-1-cyclobutylethyl)amino)-8-((1-(pyridin-2-yl)ethyl)amino)-7-(4-(trifluoromethyl)benzyl)-7H-purine-2-carboxylic acid]	54.9
CCCN(c1nc2nc(C(=O)O)nc(N[C@H](C)C3CCC3)c2n1Cc1ccc(C(F)(F)F)cc1)C(C)c1ccccn1 (stereo partly drawn) [Example 10.32, 6-(((R)-1-cyclobutylethyl)amino)-8-(propyl(1-(pyridin-2-yl)ethyl)amino)-7-(4-(trifluoromethyl)benzyl)-7H-purine-2-carboxylic acid]	3.72

same assay, conditions: Table 11; read-out: FRET IC50

Compound	IC50 [nM]
Cc1nonc1C1CCCN1c1nc2nc(-c3noc(=O)[nH]3)nc(N[C@H](C)C3CCC3)c2n1C[C@H]1CC[C@H](C)CC1 (stereo partly drawn) [Example 11.108, 3-(6-{[(1R)-1-cyclobutylethyl]amino}-7-[(trans-4-methylcyclohexyl)methyl]-8-[2-(4-methyl-1,2,5-oxadiazol-3-yl)pyrrolidin-1-yl]-7H-purin-2-yl)-1,2,4-oxadiazol-5(2H)-one]	1.6
CC1CSCCN1c1nc2nc(-c3noc(=O)[nH]3)nc(N[C@H](C)C3CCC3)c2n1C[C@H]1CC[C@H](C)CC1 (stereo partly drawn) [Example 11.123, 3-[6-{[(1R)-1-cyclobutylethyl]amino}-7-[(trans-4-methylcyclohexyl)methyl]-8-(3-methylthiomorpholin-4-yl)-7H-purin-2-yl]-1,2,4-oxadiazol-5(2H)-one]	4.39
C[C@@H](Nc1nc(-c2noc(=O)[nH]2)nc2nc(N3CCO[C@H](C)[C@H]3c3ccccc3)n(C[C@H]3CC[C@H](C)CC3)c12)C1CCC1 [Example 11.165, 3-(6-{[(1R)-1-cyclobutylethyl]amino}-7-[(trans-4-methylcyclohexyl)methyl]-8-[(2R,3R)-2-methyl-3-phenylmorpholin-4-yl]-7H-purin-2-yl)-1,2,4-oxadiazol-5(4H)-one]	0.767
C[C@@H]1CN(C)C(=O)CN1c1nc2nc(-c3noc(=O)[nH]3)nc(N[C@H](C)C3CCC3)c2n1C[C@H]1CC[C@H](C)CC1 [Example 11.120, (5R)-4-[6-{[(1R)-1-cyclobutylethyl]amino}-7-[(trans-4-methylcyclohexyl)methyl]-2-(5-oxo-4,5-dihydro-1,2,4-oxadiazol-3-yl)-7H-purin-8-yl]-1,5-dimethylpiperazin-2-one]	5.57
C[C@@H](Nc1nc(-c2noc(=O)[nH]2)nc2nc(N3CCOC4CCCC43)n(C[C@H]3CC[C@H](C)CC3)c12)C1CCC1 (single isomer, unassigned) [Example 11.149]	3.58
COC1CCN(c2nc3nc(-c4noc(=O)[nH]4)nc(N[C@H](C)C4CCC4)c3n2C[C@H]2CC[C@H](C)CC2)C1 (stereo partly drawn) [Example 11.114, 3-(6-{[(1R)-1-cyclobutylethyl]amino}-8-(3-methoxypyrrolidin-1-yl)-7-[(trans-4-methylcyclohexyl)methyl]-7H-purin-2-yl)-1,2,4-oxadiazol-5(2H)-one]	52.9
C[C@@H]1COCCN1c1nc2nc(-c3noc(=O)[nH]3)nc(N[C@H](C)C3CCC3)c2n1C[C@H]1CC[C@H](C)CC1 [Example 11.65, 3-(6-{[(1R)-1-cyclobutylethyl]amino}-7-[(trans-4-methylcyclohexyl)methyl]-8-[(3R)-3-methylmorpholin-4-yl]-7H-purin-2-yl)-1,2,4-oxadiazol-5(4H)-one]	1.45

same assay, conditions: Table 20; read-out: FRET IC50

Compound	IC50 [nM]
C[C@H]1CC[C@H](Cn2c(C3(c4ccccc4)CCC3)nc3nc(-c4n[nH]c(=O)o4)nc(-c4cncc(Cl)c4)c32)CC1 [Example 20.12, 5-[6-(5-chloropyridin-3-yl)-7-[(trans-4-methylcyclohexyl)methyl]-8-(1-phenylcyclobutyl)-7H-purin-2-yl]-1,3,4-oxadiazol-2(3H)-one]	9.59

same assay, conditions: Table 22; read-out: FRET IC50

Compound	IC50 [nM]
C[C@@H](Nc1nc(-c2noc(=O)[nH]2)nc2nc(C3(c4ccc(F)cc4)CC3)n(C[C@H]3CC[C@H](C)CC3)c12)C1CCC1 [Example 22.30, 3-(6-{[(1R)-1-cyclobutylethyl]amino}-8-[1-(4-fluorophenyl)cyclopropyl] -7-[(trans-4-methylcyclohexyl)methyl] -7H-purin-2-yl)-1,2,4-oxadiazol-5(4H)-one]	10.1
C[C@@H](Nc1nc(-c2noc(=O)[nH]2)nc2nc(C3(c4nccs4)CC3)n(C[C@H]3CC[C@H](C)CC3)c12)C1CCC1 [Example 22.59, 3-(6-{[(1R)-1-cyclobutylethyl]amino}-7-[(trans-4-methylcyclohexyl)methyl] -8-[1-(1,3-thiazol-2-yl)cyclopropyl]-7H-purin-2-yl)-1,2,4-oxadiazol-5(4H)-one]	2.3
C[C@@H](Nc1nc(-c2noc(=O)[nH]2)nc2nc(C(C)(O)c3nccs3)n(C[C@H]3CC[C@H](C)CC3)c12)C1CCC1 (stereo partly drawn) [Example 22.58, 3-(6-{[(1R)-1-cyclobutylethyl]amino}-8-[1-hydroxy-1-(1,3-thiazol-2-yl)ethyl]-7-[(trans-4-methylcyclohexyl)methyl] -7H-purin-2-yl)-1,2,4-oxadiazol-5(4H)-one]	7.21
Cc1nc(C(C)(F)c2nc3nc(-c4noc(=O)[nH]4)nc(N[C@H](C)C4CCC4)c3n2C[C@H]2CC[C@H](C)CC2)c(C)s1 (single isomer, unassigned) [Example 22.73]	4.06

same assay, conditions: Table 23; read-out: FRET IC50

Compound	IC50 [nM]
COC1(c2nc3nc(-c4n[nH]c(=O)o4)nc(-c4cncc(Cl)c4)c3n2C[C@H]2CC[C@H](C)CC2)CCCCC1C (relative stereo) [Example 23.64, 5-{6-(5-chloropyridin-3-yl)-8-(1-methoxy-2-methylcyclohexyl)-7-[(trans-4-methylcyclohexyl)methyl] -7H-purin-2-yl}-1,3,4-oxadiazol-2(3H)-one]	8.8
